Patent publication US20250163057A1, “DCN-1 MODULATING COMPOUNDS AND METHODS OF USE THEREOF” (Cellarity, Inc., priority 2023, published 2025)

How the values were obtained:
[1] = system: fetal hemoglobin gene HBG1; assay: HBG1 Nanostring Assay in CD34+ HSPC erythroid differentiation culture; type: cell-based, human; details: for EC50: HBG1 induction, Day10 of erythroid differentiation; for Nanostring Ymax obs (%): relative to a control compound (C1)
In short: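 HBG1 counts came from direct nCounter hybridization (67° C, 22 h) of day-10 lysates, normalized to ERCC positive controls and a housekeeping gene, giving EC50 and Ymax versus a reference compound. Compounds in 0.1% DMSO were present from day −2 while cells underwent EPO/SCF/IL-3 erythroid differentiation, with IL-3 dropped at day 7, at 37° C.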

[2] = system: Cullin-3 (CUL3) neddylation; assay: AlphaLISA assay for Cullin-3 (CUL3) neddylation in TF 1 cells; type: cell-based; details: 3 hours treatment
In short: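 Neddylated CUL3 was quantified by AlphaLISA in lysates of TF 1 cells exposed for 3 h to test compound in IMDM without supplements. Percent inhibition set between vehicle and 1 μM DI-1548 positive control; IC50 derived by Hill-equation fitting of dose-response curves.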

With `CCN1C(=O)[C@@H](NC(=O)c2cccc(C(F)(F)F)c2)[C@@H](c2ccc(F)cc2)c2c(C(=O)N3[C@H](C#N)C[C@H]4C[C@H]43)nn(-c3ccccc3)c21` [Compound I-277] the EC50 ([1]; Homo sapiens, 240 h) was no more than 100 nM, the “Nanostring Ymax obs (%)” value [1] was “+++ (Nanostring Ymax greater than 100.0)” and the IC50 ([2]; Homo sapiens, TF-1, 3 h) was no more than 100 nM.

`CCN1C(=O)[C@@H](NC(=O)c2cccc(C(F)(F)F)c2)[C@@H](c2ccc(F)cc2)c2c(C(=O)N(C)[C@H](C#N)CCN(C)C)nn(C3CCOCC3)c21` [Compound I-370] was tested, and the EC50 ([1]; Homo sapiens, 240 h) was no more than 100 nM, the “Nanostring Ymax obs (%)” value [1] was “+++ (Nanostring Ymax greater than 100.0)” and the IC50 ([2]; Homo sapiens, TF-1, 3 h) was no more than 100 nM.

For `CCN1C(=O)[C@@H](NC(=O)c2cccc(C(F)(F)F)c2)[C@@H](C2CC2)c2c(C(=O)N3C[C@H](OC)C[C@H]3C#N)nn(C3CCOCC3)c21` [Compound I-377], the EC50 ([1]; Homo sapiens, 240 h) was no more than 100 nM, the “Nanostring Ymax obs (%)” value [1] was “+++ (Nanostring Ymax greater than 100.0)” and the IC50 ([2]; Homo sapiens, TF-1, 3 h) was no more than 100 nM.

For `C=C(CN1CCC1)C(=O)NCc1nn(-c2ccccc2)c2c1[C@H](c1ccc(F)cc1)[C@H](NC(=O)c1cccc(C(F)(F)F)c1)C(=O)N2CC` (racemic) [Compound I-49, rac-N-((4R,5R)-3-((2-(azetidin-1-ylmethyl)acrylamido)methyl)-7-ethyl-4-(4-fluorophenyl)-6-oxo-1-phenyl-4,5,6,7-tetrahydro-1H-pyrazolo[3,4-b]pyridin-5-yl)-3-(trifluoromethyl)benzamide], the “Nanostring Ymax obs (%)” value [1] was “++ (Nanostring Ymax greater than 50.0 and less than or equal to 100.0)” and the IC50 ([2]; Homo sapiens, TF-1, 3 h) was no more than 100 nM.

`CCN1C(=O)[C@@H](NC(=O)c2cccc(C(F)(F)F)c2)[C@@H](c2ccc(F)cc2)c2c(CNC(=O)/C=C/C(=O)OC)nn(-c3ccccc3)c21` (racemic) [Compound I-3] was tested, and the EC50 ([1]; Homo sapiens, 240 h) was no more than 100 nM, the “Nanostring Ymax obs (%)” value [1] was “+++ (Nanostring Ymax greater than 100.0)” and the IC50 ([2]; Homo sapiens, TF-1, 3 h) was no more than 100 nM.

With `CCN1C(=O)[C@@H](NC(=O)c2cccc(C(F)(F)F)c2)[C@@H](C2CC2)c2c(C(=O)N3CS(=O)(=O)C[C@H]3C#N)nn(C3CCOCC3)c21` [Compound I-617] the “Nanostring Ymax obs (%)” value [1] was “+ (Nanostring Ymax greater than or equal to 0.0 and less than or equal to 50.0)” and the IC50 ([2]; Homo sapiens, TF-1, 3 h) was no more than 100 nM.

With `CCc1cccc(C(=O)N[C@@H]2C(=O)N(CC)c3c(c(C(=O)N4[C@H](C#N)C[C@H]5C[C@H]54)nn3C3CCOCC3)[C@@H]2C2CC2)c1` [Compound I-552, N-((4S,5S)-3-((1R,3S,5R)-3-cyano-2-azabicyclo[3.1.0]hexane-2-carbonyl)-4-cyclopropyl-7-ethyl-6-oxo-1-(tetrahydro-2H-pyran-4-yl)-4,5,6,7-tetrahydro-1H-pyrazolo[3,4-b]pyridin-5-yl)-3-ethylbenzamide] the EC50 ([1]; Homo sapiens, 240 h) was no more than 100 nM, the “Nanostring Ymax obs (%)” value [1] was “+++ (Nanostring Ymax greater than 100.0)” and the IC50 ([2]; Homo sapiens, TF-1, 3 h) was no more than 100 nM.

In the case of `CCN1C(=O)[C@@H](NC(=O)c2cccc(C(F)(F)F)c2)[C@@H](C2CC2)c2c(C(=O)N3CCNC[C@H]3C#N)nn(-c3ccccc3)c21` [Compound I-383], the EC50 ([1]; Homo sapiens, 240 h) is reported as no more than 100 nM, the “Nanostring Ymax obs (%)” value [1] is reported as “++ (Nanostring Ymax greater than 50.0 and less than or equal to 100.0)” and the IC50 ([2]; Homo sapiens, TF-1, 3 h) is reported as no more than 100 nM.

With `CCN1C(=O)[C@@H](NC(=O)c2cccc(C(F)(F)F)c2)[C@@H](c2ccc(F)cc2)c2c(C(=O)N3CS(=O)(=O)C[C@H]3C#N)nn(C3CCOCC3)c21` (mixture of isomers) [Compound I-661, N-((4S,5S)-3-(4-cyano-1,1-dioxidothiazolidine-3-carbonyl)-7-ethyl-4-(4-fluorophenyl)-6-oxo-1-(tetrahydro-2H-pyran-4-yl)-4,5,6,7-tetrahydro-1H-pyrazolo[3,4-b]pyridin-5-yl)-3-(trifluoromethyl)benzamide] the EC50 ([1]; Homo sapiens, 240 h) was no more than 100 nM, the “Nanostring Ymax obs (%)” value [1] was “++ (Nanostring Ymax greater than 50.0 and less than or equal to 100.0)” and the IC50 ([2]; Homo sapiens, TF-1, 3 h) was no more than 100 nM.

For `CCN1C(=O)[C@@H](NC(=O)c2cccc(C(F)(F)F)c2)[C@@H](c2ccc(F)cc2)c2c(C(=O)N3CCNCC3C#N)nn(C3CCOCC3)c21` (some centres unmarked) [Compound I-334], the EC50 ([1]; Homo sapiens, 240 h) was no more than 100 nM, the “Nanostring Ymax obs (%)” value [1] was “+++ (Nanostring Ymax greater than 100.0)” and the IC50 ([2]; Homo sapiens, TF-1, 3 h) was no more than 100 nM.

In the case of `CCN1C(=O)[C@@H](NC(=O)c2cccc(C(F)(F)F)c2)[C@@H](C2CC2)c2c(C(=O)N(C)[C@H](C)C#N)nn(C3CCOCC3)c21` [Compound I-422], the EC50 ([1]; Homo sapiens, 240 h) is reported as 100 to 1000 nM, the “Nanostring Ymax obs (%)” value [1] is reported as “+++ (Nanostring Ymax greater than 100.0)” and the IC50 ([2]; Homo sapiens, TF-1, 3 h) is reported as no more than 100 nM.

`CCN1C(=O)[C@@H](NC(=O)c2cccc(C(F)(F)F)c2)[C@@H](C)c2c(C(=O)N3[C@H](C#N)C[C@H]4C[C@H]43)nn(C3CCOCC3)c21` [Compound I-387] was tested, and the EC50 [1] was no more than 100 nM, the “Nanostring Ymax obs (%)” value [1] was “+++ (Nanostring Ymax greater than 100.0)” and the IC50 [2] was no more than 100 nM.

`CCN1C(=O)[C@@H](NC(=O)c2cccc(C(F)(F)F)c2)[C@@H](C2CC2)c2c(C(=O)N3C[C@H](F)C[C@H]3C#N)nn(C3CCOCC3)c21` [Compound I-372] was tested, and the EC50 ([1]; Homo sapiens, 240 h) was 100 to 1000 nM, the “Nanostring Ymax obs (%)” value [1] was “++ (Nanostring Ymax greater than 50.0 and less than or equal to 100.0)” and the IC50 ([2]; Homo sapiens, TF-1, 3 h) was no more than 100 nM.

With `CCN1C(=O)[C@@H](NC(=O)c2cccc(C(F)(F)F)c2)[C@@H](C2CC2)c2c(C(=O)N3CCS(=O)(=O)C[C@H]3C#N)nn(C3CCOCC3)c21` (mixture of isomers) [Compound I-379] the EC50 ([1]; Homo sapiens, 240 h) was no more than 100 nM, the “Nanostring Ymax obs (%)” value [1] was “+++ (Nanostring Ymax greater than 100.0)” and the IC50 ([2]; Homo sapiens, TF-1, 3 h) was no more than 100 nM.

`CCN1C(=O)[C@@H](NC(=O)c2cccc(C(F)(F)F)c2)[C@@H](c2ccc(F)cc2)c2c(C(=O)N3CCC[C@H]3C#N)nn(C3CCOCC3)c21` [Compound I-350] was tested, and the EC50 [1] was no more than 100 nM, the “Nanostring Ymax obs (%)” value [1] was “+++ (Nanostring Ymax greater than 100.0)” and the IC50 [2] was no more than 100 nM.

In the case of `CCN1C(=O)[C@@H](NC(=O)c2cccc(C(F)(F)F)c2)[C@@H](C2CC2)c2c(C(=O)N3CCNC[C@H]3C#N)nn(C3CCOCC3)c21` [Compound I-582], the EC50 ([1]; Homo sapiens, 240 h) is reported as 100 to 1000 nM, the “Nanostring Ymax obs (%)” value [1] is reported as “+++ (Nanostring Ymax greater than 100.0)” and the IC50 ([2]; Homo sapiens, TF-1, 3 h) is reported as no more than 100 nM.

With `CCN1C(=O)[C@@H](NC(=O)c2cccc(C(F)(F)F)c2)[C@@H](c2ccc(F)cc2)c2c(CN(C)C#N)nn(-c3ccccc3)c21` [Compound I-92] the EC50 [1] was 100 to 1000 nM, the “Nanostring Ymax obs (%)” value [1] was “++ (Nanostring Ymax greater than 50.0 and less than or equal to 100.0)” and the IC50 ([2]; Homo sapiens, TF-1, 3 h) was 100 to 1000 nM.

For `CCN1C(=O)[C@@H](NC(=O)c2cccc(C(F)(F)F)c2)[C@@H](C2CC2)c2c(C(=O)N3CC[C@H](OC)[C@H]3C#N)nn(C3CCOCC3)c21` [Compound I-418], the EC50 ([1]; Homo sapiens, 240 h) was no more than 100 nM, the “Nanostring Ymax obs (%)” value [1] was “+++ (Nanostring Ymax greater than 100.0)” and the IC50 ([2]; Homo sapiens, TF-1, 3 h) was no more than 100 nM.

With `CCN1C(=O)[C@@H](NC(=O)c2cccc(C(F)(F)F)c2)[C@@H](c2ccc(F)cc2)c2c(C(=O)N3CCNC[C@H]3C#N)nn(C3CCOCC3)c21` [Compound I-363, N-((4S,5S)-3-((S)-2-cyanopiperazine-1-carbonyl)-7-ethyl-4-(4-fluorophenyl)-6-oxo-1-(tetrahydro-2H-pyran-4-yl)-4,5,6,7-tetrahydro-1H-pyrazolo[3,4-b]pyridin-5-yl)-3-(trifluoromethyl)benzamide] the EC50 ([1]; Homo sapiens, 240 h) was no more than 100 nM, the “Nanostring Ymax obs (%)” value [1] was “+++ (Nanostring Ymax greater than 100.0)” and the IC50 ([2]; Homo sapiens, TF-1, 3 h) was no more than 100 nM.

For `CCN1C(=O)[C@@H](NC(=O)c2cccc(C(F)(F)F)c2)[C@@H](c2ccc(F)cc2)c2c([C@@H](C)NC#N)nn(-c3ccccc3)c21` [Compound I-73, N-((4S,5S)-3-((R)-1-cyanamidoethyl)-7-ethyl-4-(4-fluorophenyl)-6-oxo-1-phenyl-4,5,6,7-tetrahydro-1H-pyrazolo[3,4-b]pyridin-5-yl)-3-(trifluoromethyl)benzamide], the EC50 ([1]; Homo sapiens, 240 h) was no more than 100 nM, the “Nanostring Ymax obs (%)” value [1] was “++ (Nanostring Ymax greater than 50.0 and less than or equal to 100.0)” and the IC50 ([2]; Homo sapiens, TF-1, 3 h) was no more than 100 nM.

With `CCN1C(=O)[C@@H](NC(=O)c2cccc(C(F)(F)F)c2)[C@@H](c2ccc(F)cc2)c2c(CNC#N)nn(-c3ccccc3)c21` [Compound I-140, N-[(4S, 5S)-3-[(cyanoamino)methyl]-7-ethyl-4-(4-fluorophenyl)-6-oxo-1-phenyl-4,5-dihydropyrazolo[3,4-b]pyridine-5-yl]-3-(trifluoromethyl) benzamide] the EC50 ([1]; Homo sapiens, 240 h) was 100 to 1000 nM, the “Nanostring Ymax obs (%)” value [1] was “++ (Nanostring Ymax greater than 50.0 and less than or equal to 100.0)” and the IC50 ([2]; Homo sapiens, TF-1, 3 h) was no more than 100 nM.

`CCN1C(=O)[C@@H](NC(=O)c2cccc(C(F)(F)F)c2)[C@@H](c2ccc(F)cc2)c2c(NC(=O)C3=CCC3)nn(-c3ccccc3)c21` (racemic) [Compound I-152] was tested, and the EC50 ([1]; Homo sapiens, 240 h) was 100 to 1000 nM, the “Nanostring Ymax obs (%)” value [1] was “+++ (Nanostring Ymax greater than 100.0)” and the IC50 ([2]; Homo sapiens, TF-1, 3 h) was 100 to 1000 nM.

With `CCN1C(=O)[C@@H](NC(=O)c2cccc(C(F)(F)F)c2)[C@@H](C2CCC2)c2c(C(=O)N3CCC[C@H]3C#N)nn(C3CCOCC3)c21` [Compound I-692] the EC50 ([1]; Homo sapiens, 240 h) was no more than 100 nM, the “Nanostring Ymax obs (%)” value [1] was “+++ (Nanostring Ymax greater than 100.0)” and the IC50 ([2]; Homo sapiens, TF-1, 3 h) was no more than 100 nM.

`CCN1C(=O)[C@@H](NC(=O)c2cccc(C(F)(F)F)c2)[C@@H](c2ccc(F)cc2)c2c(C(=O)N3CCC[C@H]3C#N)nn(-c3ccccc3)c21` [Compound I-278] was tested, and the EC50 ([1]; Homo sapiens, 240 h) was no more than 100 nM, the “Nanostring Ymax obs (%)” value [1] was “+++ (Nanostring Ymax greater than 100.0)” and the IC50 ([2]; Homo sapiens, TF-1, 3 h) was no more than 100 nM.

With `CCN1C(=O)[C@@H](NC(=O)c2cccc(C(F)(F)F)c2)[C@@H](c2ccc(F)cc2)c2c(C(=O)N3CCC[C@H]3C#N)nn(-c3ccccc3)c21` (mixture of isomers) [Compound I-34] the “Nanostring Ymax obs (%)” value [1] was “++ (Nanostring Ymax greater than 50.0 and less than or equal to 100.0)”.
